{
  "source": "ChEMBL document CHEMBL1255298",
  "about": "“Larger vancomycin doses (at least four grams per day) are associated with an increased incidence of nephrotoxicity” (Antimicrob Agents Chemother, 2008)",
  "key": {"[1]": {"species_on_record": "Homo sapiens", "assay": "Nephrotoxicity in patient with gram-positive bacterial infection assessed as serum […] level at > 4 g/day measured within 72 hrs", "format": "toxicity, organism-based", "conditions": "in vivo"}, "[2]": {"species_on_record": "Homo sapiens", "assay": "Nephrotoxicity in patient with gram-positive bacterial infection assessed as change in serum […] level at > 4 g/day measured within 72 hrs", "format": "toxicity, organism-based", "conditions": "in vivo"}},
  "data": [
    {"smiles": "CN[C@H](CC(C)C)C(=O)N[C@H]1C(=O)N[C@@H](CC(N)=O)C(=O)N[C@H]2C(=O)N[C@H]3C(=O)N[C@H](C(=O)N[C@H](C(=O)O)c4cc(O)cc(O)c4-c4cc3ccc4O)[C@H](O)c3ccc(c(Cl)c3)Oc3cc2cc(c3O[C@@H]2O[C@H](CO)[C@@H](O)[C@H](O)[C@H]2O[C@H]2C[C@](C)(N)[C@H](O)[C@H](C)O2)Oc2ccc(cc2Cl)[C@H]1O", "note": "[VANCOMYCIN]", "values": [
      {"measurement": "Activity", "setting": "[1]", "result": 2.1, "unit": "mg/dL"},
      {"measurement": "Activity", "setting": "[2]", "result": 45.6, "unit": "%"}
    ]}
  ]
}
